Here are results for 7 compounds from patent US20250034182A1, “PHOSPHOLIPID COMPOUNDS AND METHODS OF MAKING AND USING THE SAME” (priority 2021, published 2025).

Assay type in all cases: cell-based
A short description of data set [1]: RSV NHBE CC50 384 V2 (per Ex. U). The note with it: human.
Data set [2] has as its system Respiratory syncytial virus recombinant with luciferase (RSV-Luc5) in NHBE cells. Nature of the data set: NHBE RSV-Luc5 384-well assay (EC50 RSVFLUC NHBE-384, Example U). The note with it: human respiratory syncytial virus, 72 h, read-out: RSV FLuc NHBE 384 EC50 (v2) (nM) (per Ex. U). The protocol: Normal Human Bronchial Epithelial (NHBE) cells were purchased from Lonza (Walkersville, MD Cat #CC2540) and maintained in BEGM Bronchial Epithelial Cell (Growth Medium BulletKit (Lonza CC-3170).
Cells were thawed, expanded, and were used for experiments at passage 2. Respiratory syncytial virus recombinant with luciferase (RSV-Luc5) (≥1×10^7 Infectious Units/ml (IU/ml) determined by TCID50) was purchased from Microbiologics (Saint Cloud, MN). Viral replication was determined in NHBE cells in the following manner.
(§1) Compounds are prepared in 100% DMSO in 384-well polypropylene plates (Greiner, Monroe, NC, Cat #784201) with 8 compounds per plate in grouped replicates of 4 at 10 serially diluted concentrations (1:3). The serially diluted compounds were transferred to low dead volume Echo plates (Labcyte, Sunnyvale, CA, Cat #LP-0200).
The test compounds were spotted to 384-well assay plates (Greiner, Monroe, NC, Cat #781091) at 200 nL per well. NHBE cells were harvested and suspended in BEGM Bronchial Epithelial Cell Growth Medium BulletKit and seeded to the pre-spotted assay plates at 5,000 cells per well in 30 μL. RSV-Luc5 virus was diluted in BEGM Bronchial Epithelial Cell Growth Medium BulletKit at 500,000 Infectious Units (IU) per mL and 10 μL per well was added to the assay plates containing cells and compounds, for an MOI of 1. The assay plates were incubated for 3 days at 37° C. and 5% CO2. At the end of incubation, One-Glo reagent (Promega, Madison, WI, Cat #E6120) was prepared. The assay plates and One-Glo reagent were equilibrated to room temperature for at least 15 minutes. 40 μL per well of One-Glo reagent was added and the plates were incubated at room temperature for 15 minutes before reading the luminescence signal on an EnVision multimode plate reader (Perkin Elmer, Waltham, MA). Remdesivir was used as positive control and DMSO was used as negative control. Values were normalized to the positive and negative controls (as 0% and 100% replication, respectively) and data was fitted using non-linear regression analysis by Gilead's dose response tool. The EC50 value for each compound was defined as the concentration reducing the viral replication by 50%.

Data set [3] is described as follows: RSV HEP2-CC50-384-V2 (per Ex. V). Particulars: human.
Data set [4] deals with Respiratory syncytial virus recombinant with luciferase (RSV-Luc5) in HEp-2 cells. Nature of the data set: HEp-2 RSV-Luc5 384-well assay (EC50 RSVFLUC Hep2-384 v2, Example V). Particulars: human respiratory syncytial virus, HEp-2, 72 h, read-out: RSV Hep-2 FLuc EC50 (v2) (nM) (per Ex. V).
Description: HEp-2 cell line was purchased from ATCC (Manassas, VA Cat #CCL-23) and maintained in Dulbecco's […] (DMEM) (Corning, New York, NY, Cat #15-018CM) supplemented with 10% fetal bovine serum (FBS) (Hyclone, Logan, UT, Cat #SH30071-03) and 1× Penicillin-Streptonycin-L-Glutamine (Corning, New York, NY, Cat #30-009-CI). Cells were passaged 2 times per week to maintain sub-confluent densities and were used for experiments at passage 5-20. Respiratory syncytial virus recombinant with luciferase (RSV-Luc5) (≥1×107 TCID50/ml) was purchased from Microbiologics (Saint Cloud, MN). Viral replication was determined in HEp-2 cells in the following manner.
as §1
The test compounds were spotted to 384-well assay plates (Greiner, Monroe, NC, Cat #781091) at 200 nL per well. HEp-2 cells were harvested and suspended in DMEM (supplemented with 10% FBS and 1× Penicillin-Streptomycin-L-Glutamine) and seeded to the pre-spotted assay plates at 4,000 cells per well in 30 μL. RSV-Luc5 viruses were diluted in DMEM (supplemented with 10% FBS and 1× Penicillin-Streptomycin-L-Glucamine) at 200,000 Infectious Units (IU) per mL and 10 μL per well was added to the assay plates containing cells and compounds, for an MOI=0.5. The assay plates were incubated for 3 days at 37° C. and 5% CO2. At the end of incubation, One-Glo reagent (Promega, Madison, WI, Cat #E6120) was prepared. The assay plates and One-Glo reagent were equilibrated to room temperature for at least 15 minutes. 40 μL per well of One-Glo reagent was added and the plates were incubated at room temp for 15 minutes before reading the luminescence signal on an EnVision multimode plate reader (Perkin Elmer, Waltham, MA). Remdesivir was used as positive control and DMSO was used as negative control. Values were normalized to the positive and negative controls (as 0% and 100% replication, respectively) and data was fitted using non-linear regression analysis by Gilead's dose response tool. The EC50 value for each compound was then determined as the concentration reducing the viral replication by 50%.

`CCCCCCCCCCCCCCCCCCOC[C@H](COP(=O)(O)OC[C@@]1(C#N)O[C@@H](c2ccc3c(N)ncnn23)[C@H](O)[C@@H]1O)Oc1ccc(C#N)nc1` [Compound 24]: in data set [1], the CC50 (as a rule, the concentration at which the toxic effect on the cells reaches its halfway point) at 3 days worked out at 937 nM. In addition, the EC50 (commonly the concentration giving half of the maximal effect) in data set [2] stood at 4 nM.

On to `CCCCCCCCCCCCCCCCCCC[C@H](COP(=O)(O)OC[C@@]1(C#N)O[C@@H](c2ccc3c(N)ncnn23)[C@H](O)[C@@H]1O)Oc1ccc(C#N)c(F)c1` [Compound 85, ((2R,3S,4R,5S)-5-(4-aminopyrrolo[2,1-f][1,2,4]triazin-7-yl)-2-cyano-3,4-dihydroxytetrahydrofuran-2-yl)methyl ((R)-2-(4-cyano-3-fluorophenoxy)henicosyl) hydrogen phosphate], for which the CC50 at 3 days in data set [1] is 1440 nM; in data set [3], greater than 50000 nM. Besides, the concentration giving a half-maximal response (EC50) in data set [4] is 93 nM; in data set [2], 11 nM.

For the compound `CCCCCCCCCCCCCC[C@@H](COP(=O)(O)OC[C@@]1(C#N)O[C@@H](c2ccc3c(N)ncnn23)[C@H](O)[C@@H]1O)OCc1cc(F)cc(C#N)c1` [Compound 86, ((2R,3S,4R,5S)-5-(4-aminopyrrolo[2,1-f][1,2,4]triazin-7-yl)-2-cyano-3,4-dihydroxytetrahydrofuran-2-yl)methyl ((S)-2-((3-cyano-5-fluorobenzyl)oxy)hexadecyl) hydrogen phosphate], the 50% cytotoxic concentration (CC50) at 3 days in data set [1] was 2900 nM; in data set [3], greater than 50000 nM. In addition, the EC50 in data set [4] is 546 nM; in data set [2] it was 25 nM.

`CCCCCCCCCCCCCCCCCC[C@@H](COP(=O)(O)OC[C@@]1(C#N)O[C@@H](c2ccc3c(N)ncnn23)[C@H](O)[C@@H]1O)OCc1cc(Cl)cc(C#N)c1` [Compound 87, ((2R,3S,4R,5S)-5-(4-aminopyrrolo[2,1-f][1,2,4]triazin-7-yl)-2-cyano-3,4-dihydroxytetrahydrofuran-2-yl)methyl ((S)-2-((3-chloro-5-cyanobenzyl)oxy)icosyl) hydrogen phosphate]: the figures for the CC50 at 3 days in data set [1] and in data set [3] were 3450 nM and greater than 34800 nM, respectively. The EC50 is 443 nM in data set [4] and 133 nM in data set [2].

In the case of `CCCCCCCCCCCCCCCCOC[C@@H](COP(=O)(O)OC[C@@]1(C#N)O[C@@H](c2ccc3c(N)ncnn23)[C@H](O)[C@@H]1O)OCc1ccccc1` [Compound 92, ((2R,3S,4R,5S)-5-(4-aminopyrrolo[2,1-f][1,2,4]triazin-7-yl)-2-cyano-3,4-dihydroxytetrahydrofuran-2-yl)methyl ((S)-2-(benzyloxy)-3-(hexadecyloxy)propyl) hydrogen phosphate], the CC50 at 3 days in data set [1] is 9560 nM; in data set [3] it was greater than 50000 nM. Moreover, the values for the concentration for a half-maximal effect (EC50) in data set [4] and in data set [2] were 194 nM and 47 nM, respectively.

Take `CCCCCCCCCCCCCCCCCC[C@@H](COP(=O)(O)OC[C@@]1(C#N)O[C@@H](c2ccc3c(N)ncnn23)[C@H](O)[C@@H]1O)OCc1ccccc1` [Compound 93, ((2R,3S,4R,5S)-5-(4-aminopyrrolo[2,1-f][1,2,4]triazin-7-yl)-2-cyano-3,4-dihydroxytetrahydrofuran-2-yl)methyl ((S)-2-(benzyloxy)icosyl) hydrogen phosphate]: the CC50 at 3 days in data set [1] was 8140 nM; in data set [3] it was greater than 50000 nM. In addition, the EC50 was found to be 3060 nM in data set [4] and 663 nM in data set [2].

In data set [1], `CCCCCCCCCCCCCCCCOC[C@@H](COP(=O)(O)OC[C@@]1(C#N)O[C@@H](c2ccc3c(N)ncnn23)[C@H](O)[C@@H]1O)OCc1cc(Cl)cc(C#N)c1` [Compound 98, ((2R,3S,4R,5S)-5-(4-aminopyrrolo[2,1-f][1,2,4]triazin-7-yl)-2-cyano-3,4-dihydroxytetrahydrofuran-2-yl)methyl ((S)-2-((3-chloro-5-cyanobenzyl)oxy)-3-(hexadecyloxy)propyl) hydrogen phosphate] gave a CC50 at 3 days of 2900 nM. Moreover, the EC50 was determined as 34 nM in data set [4] and 11 nM in data set [2].
